Some test systems named below: CAKI-1 renal; CCRF-CEM leukemia; K-562 leukemia; NCI-H460 lung; OVCAR-8 ovarian; RPMI-8226 leukemia; RXF 393 renal; SF-268 CNS; SK-MEL-28 melanoma; EKVX NSCLC.
Common to all, as to assay: growth of human tumour cells (NCI), 48 h

Values joined by “and” are separate entries in the source; they are usually repeats but may differ in a detail not shown here. Identical values can stand only once.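 A five-concentration, 48-hour dose response in 96-well plates underlies each endpoint, interpolated linearly between surrounding concentrations. GI50 = concentration required for 50% inhibition of growth. TGI marks complete inhibition of growth.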 Where a SMILES comes first, the peptide text is derived from it. The star is where a group is joined. Boc = CC(C)(C)OC(=O)*

For the molecule `Cn1c(=O)c(Oc2ccc(F)cc2)cc2cnc(NC3CCOCC3)nc21`, the GI50 in the test with CAKI-1 renal, in the test with CCRF-CEM leukemia, with K-562 leukemia, with NCI-H460 lung, with OVCAR-8 ovarian and in the test with RPMI-8226 leukemia was above 25 µM in each case. Moreover, the GI50 in the test with RXF 393 renal is 24.7 µM; in the test on SF-268 CNS it was above 25 µM; with SK-MEL-28 melanoma, above 25 µM. Besides, the TGI in the test on CAKI-1 renal, with CCRF-CEM leukemia, in the test with K-562 leukemia, in the test with NCI-H460 lung, in the test on OVCAR-8 ovarian and in the test with RPMI-8226 leukemia was above 25 µM throughout. Further, the TGI with RXF 393 renal, in the test with SF-268 CNS and in the test on SK-MEL-28 melanoma was above 25 µM in each case.
`C=CCN1CCC23c4c5ccc(O)c4OC2C(=NN=C2CCC4(O)C6Cc7ccc(O)c8c7C4(CCN6CC=C)C2O8)CCC3(O)C1C5` (centres undefined): the TGI with CAKI-1 renal was above 100 µM; in the test with CCRF-CEM leukemia it was above 100 µM; in the test on EKVX NSCLC it was above 100 µM; in the test with K-562 leukemia it was 78.7 µM; with NCI-H460 lung, 43.7 µM; in the test on OVCAR-8 ovarian, 61.7 µM. For the same molecule, the TGI was above 100 µM in the test with RPMI-8226 leukemia, above 100 µM in the test with SF-268 CNS and 35.3 µM with SK-MEL-28 melanoma.
Take `CCN(Cc1ccc(F)cc1)c1ccc(CO)c(Br)c1`: the GI50 is 1.02 µM with CAKI-1 renal; 14.6 µM in the test with CCRF-CEM leukemia; 0.487 µM in the test with K-562 leukemia; 0.144 µM with NCI-H460 lung; 9.64 µM in the test on OVCAR-8 ovarian; 0.646 µM with RPMI-8226 leukemia. The values for the GI50 in the test with RXF 393 renal, in the test on SF-268 CNS and in the test with SK-MEL-28 melanoma were 1.4 µM, 22.6 µM and 15 µM, respectively. Also, the TGI with CAKI-1 renal worked out at 15.1 µM; in the test on CCRF-CEM leukemia it was 43.9 µM; in the test with K-562 leukemia, 18.4 µM; with NCI-H460 lung, 12.1 µM; with OVCAR-8 ovarian, 47.1 µM; in the test with RPMI-8226 leukemia, 22.1 µM. The values for the TGI in the test with RXF 393 renal, in the test on SF-268 CNS and in the test on SK-MEL-28 melanoma were 16.1 µM, above 56.3 µM and 50.6 µM, respectively.
In the case of `O=C1c2cccc3cccc(c23)C(=O)N1CCCCCN1CCN(CCCCCOc2ccc(-c3nc4ccc(N5CCOCC5)cc4[nH]3)cc2)CC1`, the GI50 was above 45.6 µM with CAKI-1 renal; 1.31 µM with CCRF-CEM leukemia; above 47.1 µM with EKVX NSCLC; 0.135 µM with K-562 leukemia; 16.8 µM in the test with NCI-H460 lung; 1.32 µM in the test with OVCAR-8 ovarian. Further, the GI50 is 0.787 µM in the test on RPMI-8226 leukemia, 22.4 µM in the test with SF-268 CNS and 13 µM in the test with SK-MEL-28 melanoma. Further, the TGI in the test on CAKI-1 renal is above 70.6 µM; with CCRF-CEM leukemia it was 8.97 µM; with EKVX NSCLC, above 74.6 µM; in the test on NCI-H460 lung, 30.8 µM; with OVCAR-8 ovarian, 4.95 µM; in the test on RPMI-8226 leukemia, 3.72 µM. Besides, the TGI in the test with SF-268 CNS amounted to 43.2 µM; in the test with SK-MEL-28 melanoma, 25.7 µM.
For `Clc1nc(Cl)nc(Nc2cccc3ccccc23)n1`, the GI50 with CAKI-1 renal is above 100 µM; with CCRF-CEM leukemia, 33.4 µM; with K-562 leukemia it was 40.8 µM; in the test with NCI-H460 lung, above 100 µM; in the test on OVCAR-8 ovarian, above 100 µM; in the test with RPMI-8226 leukemia it was 39.8 µM. Moreover, the GI50 in the test on SF-268 CNS and with SK-MEL-28 melanoma was above 100 µM in each case. In addition, the TGI in the test with CAKI-1 renal, with CCRF-CEM leukemia, in the test with K-562 leukemia, in the test with NCI-H460 lung, in the test on OVCAR-8 ovarian and with RPMI-8226 leukemia was above 100 µM throughout. Moreover, the TGI in the test on SF-268 CNS and in the test on SK-MEL-28 melanoma was above 100 µM throughout.
Turning to `O=C(Nc1cc(C(F)(F)F)ccc1Cl)c1cccc(NC2=C(Cl)C(=O)N(Cc3ccccc3)C2=O)c1`, the GI50 is 89.3 µM with CAKI-1 renal; 2.71 µM with CCRF-CEM leukemia; 53 µM in the test on EKVX NSCLC; 4.23 µM in the test with K-562 leukemia; 38.2 µM in the test on NCI-H460 lung; 47.6 µM in the test on OVCAR-8 ovarian. For the same molecule, the results for the GI50 in the test on RPMI-8226 leukemia, in the test on SF-268 CNS and in the test with SK-MEL-28 melanoma were 2.92 µM, 29.2 µM and above 100 µM, respectively. For the same molecule, the TGI in the test on CAKI-1 renal, in the test with CCRF-CEM leukemia, in the test with EKVX NSCLC, with K-562 leukemia, with NCI-H460 lung and in the test with OVCAR-8 ovarian was above 100 µM in each case. In addition, the TGI is 50 µM in the test on RPMI-8226 leukemia, above 100 µM in the test with SF-268 CNS and above 100 µM in the test on SK-MEL-28 melanoma.
As to `C[C@H]1CN[C@@H]2[C@@H](C)[C@H]3[C@@H](C[C@H]4[C@@H]5CC[C@H]6C[C@@H](N)CC[C@]6(C)[C@H]5CC[C@]34C)O[C@@]2(O)C1`, the TGI with CAKI-1 renal stood at 6.43 µM; in the test with CCRF-CEM leukemia it was 4.27 µM; in the test on EKVX NSCLC, 14.9 µM; in the test on K-562 leukemia it was 41.9 µM; in the test on NCI-H460 lung it was 7.78 µM; in the test with OVCAR-8 ovarian, 4.78 µM. In addition, the TGI in the test on SF-268 CNS worked out at 7.15 µM; in the test with SK-MEL-28 melanoma, 4.23 µM.
Regarding `C[Si](C)(C)/C(I)=C/CO`, the TGI in the test on CCRF-CEM leukemia turned out to be 48.2 µM; in the test on EKVX NSCLC, 71.7 µM; with K-562 leukemia, 41.4 µM; in the test on NCI-H460 lung, 46.3 µM; in the test with OVCAR-8 ovarian, 86.5 µM; in the test on RPMI-8226 leukemia, 40.7 µM. Further, the TGI in the test with SF-268 CNS turned out to be 94.1 µM; in the test on SK-MEL-28 melanoma it was 77.5 µM.
Consider `COc1cc(/C=C\c2cc(OC)c(OC)c(OC)c2)cc(N/C=C\C(=O)c2cc(OC)c(OC)c(OC)c2)c1OC`, for which the GI50 is 3.37 µM in the test with CAKI-1 renal; 2.93 µM with CCRF-CEM leukemia; 3.38 µM in the test with K-562 leukemia; 3.93 µM with NCI-H460 lung; 4.7 µM in the test on OVCAR-8 ovarian; 3.04 µM in the test with RPMI-8226 leukemia. Besides, the GI50 with SF-268 CNS is 6.04 µM; in the test on SK-MEL-28 melanoma, 4.28 µM. Besides, the TGI in the test on CAKI-1 renal, with CCRF-CEM leukemia, in the test on K-562 leukemia, in the test on NCI-H460 lung, in the test with OVCAR-8 ovarian and in the test on RPMI-8226 leukemia was above 100 µM in each case. Further, the TGI in the test with SF-268 CNS and with SK-MEL-28 melanoma was above 100 µM each time.
For the molecule `O=C(Nc1ccc(Cl)c(C(F)(F)F)c1)c1ccc(NC2=C(Cl)C(=O)N(Cc3ccccc3)C2=O)cc1`, the GI50 is 19.4 µM in the test on CAKI-1 renal; 1.98 µM in the test on CCRF-CEM leukemia; 11.5 µM with EKVX NSCLC; 3.49 µM with K-562 leukemia; 7.04 µM in the test on NCI-H460 lung; 3.66 µM with OVCAR-8 ovarian. In addition, the GI50 with RPMI-8226 leukemia was 2.56 µM; in the test with SF-268 CNS it was 2.76 µM; with SK-MEL-28 melanoma it was 4.4 µM. Also, the TGI in the test on CAKI-1 renal is 38.6 µM; with CCRF-CEM leukemia, 6.07 µM; with EKVX NSCLC it was 34.5 µM; with K-562 leukemia, 7.24 µM; with NCI-H460 lung it was 42.3 µM; in the test with OVCAR-8 ovarian it was above 100 µM. Moreover, the TGI with RPMI-8226 leukemia is 6.58 µM; in the test on SF-268 CNS, 9.02 µM; with SK-MEL-28 melanoma, 17.6 µM.
`CC(=O)N1CCC(=O)/C(=C/c2ccccc2)C1`: the TGI was 30 µM in the test on CAKI-1 renal; above 100 µM in the test with K-562 leukemia; above 100 µM in the test on NCI-H460 lung; 99.3 µM in the test with OVCAR-8 ovarian; above 100 µM with RPMI-8226 leukemia; 67.6 µM with RXF 393 renal. Moreover, the values for the TGI in the test with SF-268 CNS and in the test with SK-MEL-28 melanoma were 62.6 µM and 38.3 µM, respectively.
Regarding `COC(=O)C(C)NC(=O)C(CCSC)NC(=O)C(Cc1ccccc1)NC(=O)OC(C)(C)C` (stereo not drawn) (Boc-Phe-Met-Ala-OMe; configuration not given here), the TGI is above 100 µM with CAKI-1 renal; 91.2 µg/mL in the test on K-562 leukemia; above 100 µM in the test on NCI-H460 lung; above 100 µM in the test on OVCAR-8 ovarian; 49.5 µg/mL and > 100 µM in the test with RPMI-8226 leukemia; above 100 µM in the test on SF-268 CNS. The TGI with SK-MEL-28 melanoma was above 100 µM. Besides, the GI50 in the test with CCRF-CEM leukemia was 2.63 µg/mL; with K-562 leukemia, 32.7 µg/mL; in the test on NCI-H460 lung it was 40.6 µg/mL; in the test on RPMI-8226 leukemia, 22.4 µg/mL; with SF-268 CNS it was 42.3 µg/mL; with SK-MEL-28 melanoma, 38.9 µg/mL.
`COc1cccc2c1C(=O)c1c(O)c3c(c(O)c1C2=O)C[C@@](O)(/C(C)=N/NC(=O)c1ccc(Cl)cc1)C[C@@H]3OC1CC(N)C(O)C(C)O1` (some centres undefined): the GI50 in the test with CAKI-1 renal was 0.708 µM; in the test on CCRF-CEM leukemia, 0.0903 µM; in the test with OVCAR-8 ovarian, 0.268 µM; in the test on RPMI-8226 leukemia, 0.216 µM. For the same molecule, the TGI in the test on CAKI-1 renal was found to be 5.98 µM; in the test on CCRF-CEM leukemia it was 2.32 µM; with OVCAR-8 ovarian, 3.02 µM; in the test with RPMI-8226 leukemia it was 1.47 µM.
With `CC1(Br)Cc2ccccc2C1=O` (centres undefined), the GI50 in the test on CAKI-1 renal was 1.75 µM; in the test with CCRF-CEM leukemia, 0.318 µM; in the test with K-562 leukemia, 0.571 µM; in the test on NCI-H460 lung, above 100 µM; with OVCAR-8 ovarian, 4.11 µM; in the test on RPMI-8226 leukemia, 3.02 µM. Also, the TGI in the test on CAKI-1 renal was 3.86 µM; in the test with CCRF-CEM leukemia, 6.75 µM and 1.82 µM; with EKVX NSCLC it was 11.2 µM; with NCI-H460 lung, above 100 µM; in the test on OVCAR-8 ovarian, 15.7 µM; with RPMI-8226 leukemia, 14.7 µM. Further, the TGI with SF-268 CNS is 20.2 µM; in the test on SK-MEL-28 melanoma it was 7.68 µM.

The values are drawn from PubChem BioAssay (NCI).
